Results on six molecules are retold here after patent publication US20250270707A1, “NON-TRIAZOLE IMIDAZOLINE AND AMIDE COMPOUNDS AND METHODS FOR INHIBITING CORROSION IN INDUSTRIAL WATER TREATMENT” (CHEMTREAT, INC., priority 2023, published 2025).

Series [1] in a line: Corrosion rate by LPR sweep, copper coupons in synthetic water, 50° C., 1 ppm free chlorine after 0.5 hrs (Examples 1 and 2). Particulars: for corrosion inhibition properties over the entire 18 hour period (in words) / corrosion resistance when free chlorine was added (in words): Example 2. The protocol:
(§1) One liter samples of synthetic water were each dosed with the compositions in Table 1.
(§2) The apparatus used for the corrosion testing was a Gamry Multiport Corrosion Cell and Gamry Reference 600+potentiostat with multiplexor. Copper coupons (CDA110) were added to the sample cells containing neutral water (pH 7.5), and the cells were dosed with 50 ppm of scale inhibitor (co-polymer and 2-phosphonobutane-1,2,4-yricarboxylic acid) and heated to 50° C. and maintained at this temperature throughout the testing. The cells were continuously stirred at a speed of 350 rpm. A cylindrical working electrode was submerged into the test solutions, and an LPR sweep (linear polarization resistance) was performed every hour for 18 hours. After the 0.5 hrs mark, 1 ppm of free chlorine was dosed into the corrosion cell.
(§3) One liter samples of the synthetic water described above with respect to Example 1 were each dosed with the compositions in Table 5 and processed under conditions similar to Example 1.

Series [2] is described as follows: Cl2 demand in the corrosion cell test (Examples 1 and 2). Type of series: physicochemical. How it is done: as §1, §2, §3

In the case of `CCCCCCCC(=O)NCCN(CCOCCC(=O)[O-])CCC(=O)[O-].[Na+].[Na+]` [DCADPP, Disodium Capryloamphodipropionate], in series [1] (2 ppm), the “CR Average (10-18 hrs)” value came to 0.304 mpy. Also, the “CR Peak” value in series [1] (2 ppm) amounted to 2.169 mpy. Also, the corrosion rate is recorded as 0.0293 mpy in series [1] (2 ppm, 0 hrs); 2.1690 mpy in series [1] (2 ppm, 1 hrs); 1.4770 mpy in series [1] (2 ppm, 2 hrs); 1.3090 mpy in series [1] (2 ppm, 3 hrs); 0.6705 mpy in series [1] (2 ppm, 4 hrs); 0.6007 mpy in series [1] (2 ppm, 5 hrs). For the same molecule, the corrosion rate in series [1] (2 ppm, 6 hrs) is recorded as 0.6353 mpy; in series [1] (2 ppm, 7 hrs) it was 0.5403 mpy; in series [1] (2 ppm, 8 hrs), 0.4352 mpy; in series [1] (2 ppm, 9 hrs), 0.3962 mpy; in series [1] (2 ppm, 10 hrs) it was 0.3671 mpy; in series [1] (2 ppm, 11 hrs), 0.3426 mpy. The corrosion rate in series [1] (2 ppm, 12 hrs) turned out to be 0.3293 mpy; in series [1] (2 ppm, 13 hrs), 0.3130 mpy; in series [1] (2 ppm, 14 hrs), 0.2994 mpy; in series [1] (2 ppm, 15 hrs), 0.2826 mpy; in series [1] (2 ppm, 16 hrs), 0.2749 mpy; in series [1] (2 ppm, 17 hrs) it was 0.2691 mpy. This molecule also gave a corrosion rate in series [1] (2 ppm, 18 hrs) of 0.2604 mpy. Moreover, the “corrosion inhibition properties over the entire 18 hour period (in words)” value in series [1] (2 ppm) was “inferior corrosion inhibition properties”. The “corrosion resistance when free chlorine was added (in words)” value in series [1] (2 ppm) is “substantial deterioration in corrosion resistance”. For the same molecule, the “Cl2 Demand” value in series [2] (2 ppm) is 1.0 mg/L.

Turning to `CCCCCCCC(=O)NCCN(CCOCC(=O)[O-])CC(=O)[O-].[Na+].[Na+]` [DCyADAA, Disodium Capryloamphodiacetate], the “CR Average (10-18 hrs)” value in series [1] (2 ppm) was 0.271 mpy. Moreover, the “CR Peak” value in series [1] (2 ppm) was 2.854 mpy. The corrosion rate in series [1] (2 ppm, 0 hrs) turned out to be 0.0230 mpy; in series [1] (2 ppm, 1 hrs), 2.8540 mpy; in series [1] (2 ppm, 2 hrs), 1.5850 mpy; in series [1] (2 ppm, 3 hrs) it was 1.3860 mpy; in series [1] (2 ppm, 4 hrs), 0.5261 mpy; in series [1] (2 ppm, 5 hrs), 0.6207 mpy. The corrosion rate in series [1] (2 ppm, 6 hrs) was determined as 0.5852 mpy; in series [1] (2 ppm, 7 hrs) it was 0.4766 mpy; in series [1] (2 ppm, 8 hrs), 0.4185 mpy; in series [1] (2 ppm, 9 hrs), 0.3747 mpy; in series [1] (2 ppm, 10 hrs) it was 0.3416 mpy; in series [1] (2 ppm, 11 hrs) it was 0.3181 mpy. The corrosion rate in series [1] (2 ppm, 12 hrs) was 0.2953 mpy; in series [1] (2 ppm, 13 hrs) it was 0.2800 mpy; in series [1] (2 ppm, 14 hrs), 0.2681 mpy; in series [1] (2 ppm, 15 hrs), 0.2352 mpy; in series [1] (2 ppm, 16 hrs), 0.2411 mpy; in series [1] (2 ppm, 17 hrs), 0.2394 mpy. The corrosion rate in series [1] (2 ppm, 18 hrs) stood at 0.2217 mpy. Besides, in series [1] (2 ppm), the “corrosion inhibition properties over the entire 18 hour period (in words)” value is recorded as “inferior corrosion inhibition properties”. Besides, the “corrosion resistance when free chlorine was added (in words)” value in series [1] (2 ppm) is recorded as “substantial deterioration in corrosion resistance”. In addition, in series [2] (2 ppm), the “Cl2 Demand” value turned out to be 1.1 mg/L.

Consider `CCCCCCCCCCCC(=O)NCCN(CCOCC(=O)[O-])CC(=O)[O-].[Na+].[Na+]` [DLADAA, Disodium Lauroamphodiacetate], for which, in series [1] (2 ppm), the “CR Average (10-18 hrs)” value was 0.036 mpy. Also, the “CR Peak” value in series [1] (2 ppm) was 0.392 mpy. Also, the corrosion rate in series [1] (2 ppm, 0 hrs) was determined as 0.0175 mpy; in series [1] (2 ppm, 1 hrs), 0.3923 mpy; in series [1] (2 ppm, 2 hrs) it was 0.3065 mpy; in series [1] (2 ppm, 3 hrs) it was 0.2159 mpy; in series [1] (2 ppm, 4 hrs), 0.1420 mpy; in series [1] (2 ppm, 5 hrs), 0.1385 mpy. In addition, the corrosion rate in series [1] (2 ppm, 6 hrs) worked out at 0.1059 mpy; in series [1] (2 ppm, 7 hrs) it was 0.0894 mpy; in series [1] (2 ppm, 8 hrs) it was 0.0705 mpy; in series [1] (2 ppm, 9 hrs), 0.0631 mpy; in series [1] (2 ppm, 10 hrs) it was 0.0512 mpy; in series [1] (2 ppm, 11 hrs), 0.0461 mpy. Besides, the corrosion rate was determined as 0.0419 mpy in series [1] (2 ppm, 12 hrs); 0.0378 mpy in series [1] (2 ppm, 13 hrs); 0.0347 mpy in series [1] (2 ppm, 14 hrs); 0.0304 mpy in series [1] (2 ppm, 15 hrs); 0.0282 mpy in series [1] (2 ppm, 16 hrs); 0.0262 mpy in series [1] (2 ppm, 17 hrs). Besides, the corrosion rate in series [1] (2 ppm, 18 hrs) was 0.0242 mpy. Besides, the “corrosion inhibition properties over the entire 18 hour period (in words)” value in series [1] (2 ppm) is reported as “good corrosion inhibition properties”. Also, the “Cl2 Demand” value in series [2] (2 ppm) is recorded as 0.7 mg/L.

As to `O=C([O-])C(O)[C@H](O)[C@@H](O)[C@H](O)[C@H](O)CO.[Na+]` (stereo partly drawn) [Glucoheptonate, NaGlucoheptonate, reference compound], the “CR Average (10-18 hrs)” value in series [1] (5 ppm) was 0.278 mpy. The “CR Peak” value in series [1] (5 ppm) stood at 2.670 mpy. Besides, the corrosion rate in series [1] (5 ppm, 0 hrs) stood at 0.074 mpy; in series [1] (5 ppm, 1 hrs) it was 2.670 mpy; in series [1] (5 ppm, 2 hrs) it was 2.004 mpy; in series [1] (5 ppm, 3 hrs), 1.238 mpy; in series [1] (5 ppm, 4 hrs) it was 0.784 mpy; in series [1] (5 ppm, 5 hrs), 0.536 mpy. The corrosion rate in series [1] (5 ppm, 6 hrs) stood at 0.504 mpy; in series [1] (5 ppm, 7 hrs), 0.449 mpy; in series [1] (5 ppm, 8 hrs), 0.357 mpy; in series [1] (5 ppm, 9 hrs), 0.331 mpy; in series [1] (5 ppm, 10 hrs), 0.311 mpy; in series [1] (5 ppm, 11 hrs), 0.297 mpy. In addition, the corrosion rate stood at 0.288 mpy in series [1] (5 ppm, 12 hrs); 0.280 mpy in series [1] (5 ppm, 13 hrs); 0.274 mpy in series [1] (5 ppm, 14 hrs); 0.269 mpy in series [1] (5 ppm, 15 hrs); 0.267 mpy in series [1] (5 ppm, 16 hrs); 0.260 mpy in series [1] (5 ppm, 17 hrs). The molecule also yielded a corrosion rate in series [1] (5 ppm, 18 hrs) of 0.257 mpy. In addition, the “Cl2 Demand” value in series [2] (5 ppm) was 0.5 mg/L.

As for `CCCCCCCCCCCCN(CCC(=O)[O-])CCC(=O)O.[Na+]` [SL, Sodium Lauriminodipropionate, reference compound], the “CR Average (10-18 hrs)” value in series [1] (2 ppm) amounted to 0.067 mpy. Besides, the “CR Peak” value in series [1] (2 ppm) was 0.932 mpy. Moreover, the corrosion rate in series [1] (2 ppm, 0 hrs) was determined as 0.0368 mpy; in series [1] (2 ppm, 1 hrs) it was 0.9317 mpy; in series [1] (2 ppm, 2 hrs) it was 0.4889 mpy; in series [1] (2 ppm, 3 hrs), 0.3498 mpy; in series [1] (2 ppm, 4 hrs) it was 0.2185 mpy; in series [1] (2 ppm, 5 hrs) it was 0.1644 mpy. In addition, the corrosion rate is on record as 0.1286 mpy in series [1] (2 ppm, 6 hrs); 0.1128 mpy in series [1] (2 ppm, 7 hrs); 0.0992 mpy in series [1] (2 ppm, 8 hrs); 0.0910 mpy in series [1] (2 ppm, 9 hrs); 0.0854 mpy in series [1] (2 ppm, 10 hrs); 0.0779 mpy in series [1] (2 ppm, 11 hrs). The corrosion rate in series [1] (2 ppm, 12 hrs) is given as 0.0757 mpy; in series [1] (2 ppm, 13 hrs), 0.0685 mpy; in series [1] (2 ppm, 14 hrs) it was 0.0643 mpy; in series [1] (2 ppm, 15 hrs) it was 0.0613 mpy; in series [1] (2 ppm, 16 hrs) it was 0.0580 mpy; in series [1] (2 ppm, 17 hrs), 0.0543 mpy. Also, the corrosion rate in series [1] (2 ppm, 18 hrs) is given as 0.0536 mpy. For the same molecule, in series [1] (2 ppm), the “corrosion inhibition properties over the entire 18 hour period (in words)” value is listed as “did not perform well”. Also, in series [2] (2 ppm), the “Cl2 Demand” value turned out to be 0.7 mg/L.

In the case of `CCCCCCCCCCCCCCCCCCN(C(=O)CC(C(=O)[O-])S(=O)(=O)[O-])C(CC(=O)[O-])C(=O)[O-].[Na+].[Na+].[Na+].[Na+]` (stereo not drawn) [TDSS, Tetrasodium Dicarboxyethyl Stearyl Sulfosuccinamate, reference compound], the “CR Average (10-18 hrs)” value in series [1] (7 ppm) was found to be 0.141 mpy. Also, the “CR Peak” value in series [1] (7 ppm) is 0.243 mpy. Further, the corrosion rate in series [1] (7 ppm, 0 hrs) is recorded as 0.0149 mpy; in series [1] (7 ppm, 1 hrs), 0.1875 mpy; in series [1] (7 ppm, 2 hrs) it was 0.2432 mpy; in series [1] (7 ppm, 3 hrs), 0.2313 mpy; in series [1] (7 ppm, 4 hrs) it was 0.1839 mpy; in series [1] (7 ppm, 5 hrs) it was 0.1611 mpy. Moreover, the corrosion rate in series [1] (7 ppm, 6 hrs) is given as 0.1349 mpy; in series [1] (7 ppm, 7 hrs) it was 0.1387 mpy; in series [1] (7 ppm, 8 hrs), 0.1304 mpy; in series [1] (7 ppm, 9 hrs), 0.1291 mpy; in series [1] (7 ppm, 10 hrs) it was 0.1381 mpy; in series [1] (7 ppm, 11 hrs) it was 0.1431 mpy. Further, the corrosion rate amounted to 0.1363 mpy in series [1] (7 ppm, 12 hrs); 0.1485 mpy in series [1] (7 ppm, 13 hrs); 0.1371 mpy in series [1] (7 ppm, 14 hrs); 0.1428 mpy in series [1] (7 ppm, 15 hrs); 0.1422 mpy in series [1] (7 ppm, 16 hrs); 0.1375 mpy in series [1] (7 ppm, 17 hrs). Also, in series [1] (7 ppm, 18 hrs), the corrosion rate is 0.1422 mpy. In addition, the “Cl2 Demand” value in series [2] (7 ppm) is 0.8 mg/L.
